Measured values taken from ChEMBL document CHEMBL2203071, “Gambogic acid deactivates cytosolic and mitochondrial thioredoxins by covalent binding to the functional domain” (J Nat Prod, 2012).
Active and inactive are the calls of the source. The rule behind the calls is not given here.

Legend:
[1] = target: T1, Thioredoxin (Homo sapiens) (UniProt P10599); experiment: Covalent binding affinity to human recombinant TRX-1 assessed as change in protein configuration at 0.1 mM by MALDITOF mass spectrometry
T1 sequence (whole entry): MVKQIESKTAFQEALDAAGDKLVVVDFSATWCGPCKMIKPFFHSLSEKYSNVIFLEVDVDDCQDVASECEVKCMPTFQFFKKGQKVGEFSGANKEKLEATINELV

[2] = target: T2, Thioredoxin, mitochondrial (Homo sapiens) (UniProt Q99757); experiment: Covalent binding affinity to human recombinant TRX-2 assessed as change in protein configuration at 0.05 mM by MALDITOF mass spectrometry
T2 sequence (whole entry): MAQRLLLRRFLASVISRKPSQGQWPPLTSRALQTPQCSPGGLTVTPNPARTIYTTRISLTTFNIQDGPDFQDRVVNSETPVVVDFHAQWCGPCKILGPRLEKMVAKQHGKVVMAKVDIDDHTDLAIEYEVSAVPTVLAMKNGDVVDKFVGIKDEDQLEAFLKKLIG

[3] = target: T1, Thioredoxin (Homo sapiens); experiment: Covalent binding affinity to TRX-1 in human […] cells assessed as compound-TRX-1 adduct formation at 3 uM after 2 hrs by immunoblotting in presence of GSH; format: cell-based
[4] = target: T2, Thioredoxin, mitochondrial (Homo sapiens); experiment: Covalent binding affinity to TRX-2 in human […] cells assessed as compound-TRX-2 adduct formation at 3 uM after 2 hrs by immunoblotting in presence of GSH; format: cell-based
[5] = target: T1, Thioredoxin (Homo sapiens); experiment: Covalent binding affinity to TRX-1 in human […] cells at 3 uM after 2 hrs by immunofluorescence assay; format: cell-based
[6] = target: T2, Thioredoxin, mitochondrial (Homo sapiens); experiment: Covalent binding affinity to TRX-2 in human […] cells at 3 uM after 2 hrs by immunofluorescence assay; format: cell-based
[7] = target: T1, Thioredoxin (Homo sapiens); experiment: Inhibition of human recombinant TRX-1 by insulin reduction assay; conditions: TDE = time-dependent effect
[8] = target: T1, Thioredoxin (Homo sapiens); experiment: Inhibition of TRX1 in human […] cells after 2 hrs by insulin reduction assay; format: cell-based
[9] = target: T3, Thioredoxin, mitochondrial (Homo sapiens, UniProt Q99757); experiment: (§1) Inhibition of human recombinant TRX-2 up to 60 mins by insulin reduction assay
T3 sequence (Q99757 whole entry): T2 sequence (whole entry)

[10] = target: T2, Thioredoxin, mitochondrial (Homo sapiens); experiment: as §1
[11] = target: T1, Thioredoxin (Homo sapiens); experiment: Covalent binding affinity to human recombinant TRX-1 assessed as change in protein configuration at 50 uM by LC-ESIQTOF mass spectrometry; conditions: TDE = time-dependent effect
[12] = target: T2, Thioredoxin, mitochondrial (Homo sapiens); experiment: Covalent binding affinity to human recombinant TRX-2 C assessed as modification in C31/C34 residues by LC-MS/MS analysis
[13] = target: T1, Thioredoxin (Homo sapiens); experiment: (§2) Inhibition of human recombinant TRX-1 up to 60 mins by insulin reduction assay
Thioredoxin = target: T4, Thioredoxin (Homo sapiens, UniProt P10599); experiment: as §2
T4 sequence (P10599 whole entry): T1 sequence (whole entry)

[14] = target: T2, Thioredoxin, mitochondrial (Homo sapiens); experiment: Inhibition of human recombinant TRX-2 by insulin reduction assay; conditions: TDE = time-dependent effect
[15] = target: T2, Thioredoxin, mitochondrial (Homo sapiens); experiment: Covalent binding affinity to human recombinant TRX-2 assessed as change in protein configuration at 20 uM by LC-ESIQTOF mass spectrometry; conditions: TDE = time-dependent effect
[16] = target: T1, Thioredoxin (Homo sapiens); experiment: Covalent binding affinity to human recombinant TRX-1 C assessed as modification in C62/C69/C73 residues by LC-MS/MS analysis

With `CC(C)=CCC/C(C)=C/Cc1c(O)c(CC=C(C)C)c2c(c1O)C(=O)C1=C[C@@H]3C[C@H]4C(C)(C)O[C@@](C/C=C(/C)C(=O)O)(C3=O)[C@@]14O2` the Activity [1] was “Active” and the Activity [2] was “Active”.
With `CC(C)=CCC[C@]1(C)C=Cc2c(O)c3c(c(CC=C(C)C)c2O1)O[C@]12C(=C[C@@H]4C[C@H]1C(C)(C)O[C@@]2(C/C=C(/C)C(=O)NCCCCCNC(=O)CCCC[C@@H]1SC[C@@H]2NC(=O)N[C@@H]21)C4=O)C3=O` the Activity [3] was “Active”, the Activity [4] was “Active” and the Activity [5] was “Active”. For the same molecule, the Activity [6] was “Active”.
With `CC(C)=CCC[C@]1(C)C=Cc2c(O)c3c(c(CC=C(C)C)c2O1)O[C@]12C(C3=O)C(O)[C@@H]3C[C@H]1C(C)(C)O[C@@]2(C/C=C(/C)C(=O)O)C3=O` (some centres undefined) the Activity [1] was “inactive” and the Activity [2] was “inactive”.
In the case of `CC(C)=CCC[C@]1(C)C=Cc2c(O)c3c(c(CC=C(C)C)c2O1)O[C@]12C(C3=O)[C@@H](S(=O)(=O)O)[C@@H]3C[C@H]1C(C)(C)O[C@@]2(C/C=C(/C)C(=O)O)C3=O` (some centres undefined), the Activity [1] is reported as “inactive” and the Activity [2] is reported as “inactive”.
With `CC(C)=CCC[C@]1(C)C=Cc2c(O)c3c(c(CC=C(C)C)c2O1)O[C@]12C(C3=O)[C@H](S(=O)(=O)O)[C@@H]3C[C@H]1C(C)(C)O[C@@]2(C/C=C(/C)C(=O)O)C3=O` (some centres undefined) the Activity [1] was “inactive” and the Activity [2] was “inactive”.
`CC(C)=CCC[C@]1(C)C=Cc2c(O)c3c(c(CC=C(C)C)c2O1)O[C@]12C(C[C@@H]4C[C@H]1C(C)(C)O[C@@]2(C/C=C(/C)C(=O)O)C4=O)C3=O` (some centres undefined) was tested, and the Activity [1] was “inactive” and the Activity [2] was “inactive”.
`CC(C)=CCC[C@]1(C)C=Cc2c(O)c3c(c(CC=C(C)C)c2O1)O[C@]12C(=C[C@@H]4C[C@H]1C(C)(C)O[C@@]2(C/C=C(/C)C(=O)O)C4=O)C3=O` [GAMBOGIC ACID] was tested, and the inhibition [7] was “tde”, the inhibition [8] was “Dose-dependent effect” and the Ki [9] was 1.31 µM. The Kinact [10] was 0.037 min⁻¹, the inhibition [10] was “Dose-dependent effect” and the Activity [11] was “tde”. For the same molecule, the Activity [12] was “Active”, the Kinact [13] was 0.063 min⁻¹ and the inhibition [13] was “Dose-dependent effect”. For the same molecule, the Ki (Thioredoxin) was 3.11 µM, the Activity [1] was “Active” and the inhibition [14] was “tde”. For the same molecule, the Activity [15] was “tde”, the Activity [2] was “Active” and the Activity [16] was “Active”.
